Patent US20060127505A1, “Anti-inflammatory formulations” (priority 2002, published 2006)
“Also recorded” adds a separate entry of the source.

Key:
PAF = PAF (Homo sapiens, UniProt P25105); settings: cited from earlier work
[1] = system: CD3+HLA-DR+ T lymphocytes in human PBMC; experiment: PHA induction of HLA-DR+ on CD3+ T cells, PBMC from asthma patients (Example 5); assay type: cell-based; settings: for SI HLA-DR: PHA 50 μg/ml, 24 hours
Method: (§1) Experiments were carried out to determine whether the immunoregulatory capacity of two commonly-used H1-inhibitory antihistamines: cetirizine dihydrochloride (CTZ/Zyrtec) and azelastine ([…]) is potentiated by the platelet activating factor receptor (PAFR) antagonist and free radical scavenger Ginkgolide B (GB). […] Each drug was first evaluated independently over a 3-log dose range from 10^-8-10^-6 M.

TNF-α = TNF-α expression by PHA-stimulated human PBMC, ELISA of supernatant; assay type: cell-based; settings: PHA 50 μg/ml, 24 hours; 10^−4 M
Method: PBMC (2×10^6/ml) from 2 donors were stimulated with 50 μg/ml, PHA; or with astaxanthin (10^−6 M); or with the ginkgolide BN52021 (GB) (10^−4 M); or with a combination of astaxanthin (10^−6 M) plus GB (10^−4 M); or with media. Cells were cultured 24 hours at 37° C., 5% CO2 and analyzed by ELISA for supernatant concentration of TNF-α. Each data point is the mean of triplicate samples.

[2] = system: CD3+CD25+ T lymphocytes in human PBMC; experiment: PHA induction of CD25+ on CD3+ T cells, PBMC from asthma patients (Example 5); assay type: cell-based; settings: PHA 50 μg/ml, 24 hours
Method: as §1

[3] = system: CD3+HLA-DR+ lymphocytes in human PBMC; experiment: PHA-mediated induction of CD3+HLA-DR+ lymphocytes in human PBMC (Example 8); assay type: cell-based; settings: PHA 50 μg/ml, 24 hours
Method: (§2) Cells from 3-12 asthma patients were cultured 24 hours with 50 μg/ml PHA. PBMC evaluated by 2-color flow cytometry were gated for CD3+ and analyzed for CD3+CD25+ or CD3+HLA-DR+ as a percentage of the CD3+ population. Results are reported as stimulation indices (SI) calculated as the ratio of % CD3+CD25+ cells or % CD3+HLA-DR+ cells in fully-stimulated cultures to % CD3+CD25+ or % CD3+HLA-DR+ respectively in cells treated with PHA plus ASX, GB, or combinations thereof.

[4] = system: CD3+CD25+ lymphocytes in human PBMC; experiment: PHA-mediated induction of CD3+CD25+ lymphocytes in human PBMC (Example 8); assay type: cell-based; settings: PHA 50 μg/ml, 24 hours
Method: as §2

[5] = system: ovalbumin(OA)-induced asthma in guinea pigs; experiment: Ovalbumin-induced asthma in guinea pigs: inflammatory cells in BAL fluid; assay type: in vivo, guinea pig; settings: components used separately: 10 mg/kg AX, 200 mg/kg vit C, 10 mg/kg GB
Method: The effect combinations of vitamin C, astaxanthin, and ginkolide on asthma-associated disease parameters ovalbumin(OA)-induced asthma in guinea pigs was evaluated. Twenty-four hours following OA challenge, animals are sacrificed and numbers of inflammatory cells (eosinophils, neutrophils, macrophages) are measured in bronchoalveolar lavage (BAL) fluid; and cAMP and cGMP concentrations in the lung tissue. The experiments were carried out as follows. Male Hartley guinea pigs (250-350 g) were sensitized by intramuscular injections of 0.35 ml of a 5% (W/V) ovalbumin (OA)/saline solution into each thigh on days 1 and 4. Guinea pigs were ready for asthmatic challenge after 25 days of ovalbumin injection. Asthmatic challenge was carried out with ovalbumin aerosol, and bronchoalveolar lavage (BAL) was done 24 hours later. The numbers of eosinophils, neutrophils, and macrophages in the BAL fluid were counted. Twenty-four hours after the aerosol OA challenge, guinea pigs were killed by cervical dislocation and exsanguinated by severing the axillary arteries. Lungs were lavaged with 50 ml of DulBecco's phosphate-buffered saline (aliquots of 10 ml), which were aspirated after gentle chest massage. BAL fluid was centrifuged at 2200 rpm (1100×g) for 10 min, supernatant was aspirated, and pellets were resuspended in 5 ml 0.25% NaCl to lyse residual erythrocytes. This dispersion was centrifuged at 2200 rpm (1100×g) for 10 min, supernatant was aspirated, and pellets were resuspended 5 ml 0.9% NaCl. Total cell counts were done by hemocytometry using trypan blue stain. Slides were prepared on a Shandon Cytospin 2 (Pittsburgh, Pa.) at 300 rpm for 5 min, fixed and stained. Differential cell counts were done using standard morphologic criteria to classify cells as eosinophils, neutrophils, or macrophages, and the results were expressed in cell numbers. The dose-responsive effect of AX, EGb761, and vitamin C administered independently for suppression of asthma-associated parameters in allergen-induced, asthmatic guinea pigs was determined. Ibuprophen (IB) was used as the positive control. Concentration of inflammatory cells in bronchoalveolar lavage (BAL) fluid and levels of cAMP and cGMP in lung tissue were measured in guinea pigs 24 hours following challenge with OV. Data is reported as mean±SD of measurements taken in 6 animals per dosage cohort. *p<0.05 compared to corresponding values of OV antigen-challenged, drug-free control group. The dose-responsive effect of AX, EGb761, and vitamin C administered in combination for suppression of asthma-associated parameters in allergen-induced, asthmatic guinea pigs was determined. The combination of these three components was given each day for each guinea pig as a “cocktail”. Concentration of inflammatory cells in bronchoalveolar lavage (BAL) fluid and levels of cAMP and cGMP in lung tissue were measured in guinea pigs 24 hours following challenge with OV. Data is reported as mean±SD of measurements taken in 6 animals per dosage cohort. *p<0.05 compared to corresponding values of OV antigen-challenged, drug-free control group.

[6] = system: CD3+CD25+ cells in human PBMC; experiment: T lymphocyte activation (CD3+CD25+) in PHA-stimulated PBMC of asthma patients (Example 6); assay type: cell-based; settings: PHA 50 μg/ml, 24 hours
Method: Experiments were carried out to determine whether formulations based on the platelet activating factor receptor (PAFR) antagonist and free radical scavenger Ginkgolide B (GB) in combination with the antioxidant carotenoid astaxanthin (ASX) suppress T cell activation in the same dose range as two commonly-used antihistamines: cetirizine dihydrochloride (CTZ/Zyrtec) and azelastine ([…]). […] Results are reported as stimulation indices (SI) of % CD3+CD25+ cells in cultures treated with PHA alone to % CD3+CD25+ cells in each drug-supplemented culture. […] Subjects for this study included 12 patients diagnosed with atopic asthma, 7 male and 5 female, ranging in age from 21 to 40 years (mean 28±1.8 years). Disease duration ranged from 2 to 12 years. Atopy was defined on the basis of one or more positive skin prick tests to a range of 20 allergens. None of the patients had received systemic therapy for at least 6 weeks prior to blood collection. The mean serum IgE was 335 (170-480) IU/ml. Venous blood for each subject was collected in polyethylene tubes containing EDTA during a one hour morning time interval. PBMC were separated by Ficoll-paque (Pharmacia, Uppsala, Sweden) density gradient centrifugation. Cells were washed and suspended in RPMI 1640 medium (Gibco BRL, Gaithersburg, Md.) at density of 1×10^6 cells/ml. PBMC were stimulated with 50 μg/ml Phytohemaglutinin (PHA) (Sigma Immunopharmaceuticals, St. Lous Mo.), or PHA plus 10^-8-10^-5 M astaxanthin (Natural Alternatives International (NAI) Inc., San Marcos Calif.); or ginkgolide B 10^-8-10^-6 M (NAI San Marcos Calif.); or selected combinations of ASX plus GB. Comparison of ASX and GB effects on T cell activation were made with two other pharmacological agents with anti-asthmatic properties by treating cells with 10^-7-10^-4 M cetirizine dihydrochloride (Pfizer Pharmaceuticals, Norwich Conn.); or 10^-7-10^-4 M azalestine hydrochloride (Wallace Pharmaceuticals, Somerset N.J.), followed by evaluation of cultures for the same biological endpoints as ASX/GB-treated cells. Each reagent was added at the outset of a 24 hours culture period, followed by harvest of cellular fraction for immunophenotyping studies. […] Two-color Flow cytometry was conducted using a Coulter Epics XL automated flow cytometer (Coulter Scientific, Hialeah, Fla., USA). Isotypic controls for the monoclonal antibodies (mAb) used to detect antigens of interest were established for each cell preparation. Positive analysis regions for cells expressing specific surface markers were set against controls and specific binding of fluorophore-conjugated mAb was analyzed by cytofluorography according to standard methods recommended by the manufacturer. Lymphocyte subpopulations were identified by position on forward and side scatter plots and live-gated. Expression of each antigen was reported as percentage cells positive for a particular T cell subpopulation defined by expression of CD3 (T lymphocyte marker) plus CD25, plus or minus standard error. Statistical analysis was performed using an independent t-test. All statistical analyses were performed using the SPSS for Windows statistical package (Norusis/SPSS, Inc.). […] The capacity of formulations evaluated in this study to suppress immune activation was measured as a stimulation index (SI), defined as the ratio of […].

eosinophils = settings: oral treatment; histamine-induced guinea pig eye model; cited from earlier work
cAMP-phosphodiesterase = settings: cited from earlier work

Sequence of PAF (P25105 whole entry): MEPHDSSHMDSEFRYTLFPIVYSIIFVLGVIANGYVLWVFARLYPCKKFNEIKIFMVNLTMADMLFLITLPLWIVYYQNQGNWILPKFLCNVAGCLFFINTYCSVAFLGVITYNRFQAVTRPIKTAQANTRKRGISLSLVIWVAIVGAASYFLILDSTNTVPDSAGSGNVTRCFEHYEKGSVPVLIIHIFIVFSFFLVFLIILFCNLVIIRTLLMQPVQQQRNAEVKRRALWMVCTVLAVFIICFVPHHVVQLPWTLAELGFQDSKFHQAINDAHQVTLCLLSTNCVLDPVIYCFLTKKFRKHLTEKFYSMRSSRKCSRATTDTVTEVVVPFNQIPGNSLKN

In the case of `COc1ccc(NC(=S)N2CCc3c(sc4c3C(c3ccccc3Cl)=NCc3nnc(C)n3-4)C2)cc1` [BN 50730], the “PAF antagonistic activity in vitro compared with BN52021” value (PAF) is listed as “several ten-folds more potent”.

In the case of `CC1C(=O)OC2C(O)C34C5CC(C(C)(C)C)C36C(OC(=O)C6O)OC4(C(=O)O5)C12O` (centres unmarked) [GB, Ginkgolide B], the “decrease in SI for HLA-DR” value ([1]; 10^−8 M) is reported as 39%, the “SI HLA-DR” value ([1]; 10^−6 M) is reported as 0.72 ± 0.18 and the “SI HLA-DR” value ([1]; 10^−7 M) is reported as 0.62 ± 0.18. For the same molecule, the “SI HLA-DR” value ([1]; 10^−8 M) was 0.61 ± 0.10, the TNF-alpha (TNF-α) was 1689.21 pg/mL and the “SI CD25” value ([2]; 10^−6 M) was 0.94 ± 0.12. The “SI CD25” value ([2]; 10^−7 M) was 1.18 ± 0.21, the “SI CD25” value ([2]; 10^−8 M) was 0.81 ± 0.14 and the “CD3+HLA-DR+ Stimulation Index” value ([3]; 10^−6 M) was 0.66 ± 0.06. For the same molecule, the “CD3+HLA-DR+ Stimulation Index” value ([3]; 10^−7 M) was 0.78 ± 0.20, the “CD3+HLA-DR+ Stimulation Index” value ([3]; 10^−8 M) was 0.73 ± 0.12 and the “CD3+CD25+ Stimulation Index” value ([4]; 10^−6 M) was 0.83 ± 1.0. The “CD3+CD25+ Stimulation Index” value ([4]; 10^−7 M) was 0.92 ± 0.08, the “CD3+CD25+ Stimulation Index” value ([4]; 10^−8 M) was 0.90 ± 0.07 and the “protection against OV-induced asthma” value [5] was “failed to protect; also recorded: failed to reduce the severity of asthma”. For the same molecule, the “SI (CD3+CD25+)” value ([6]; 10^−6 M) was 0.77±0.12 and the “SI (CD3+CD25+)” value ([6]; 10^−8 M) was 0.86±0.07.

For `COc1ccc(C2CNC(=O)C2)cc1OC1CCCC1` (centres unmarked) [rolipram], the infiltrate of eosinophils (eosinophils) is listed as “significantly suppressed infiltrate”.

For `COc1ccc(-c2cc(=O)c3c(O)cc(O)c(-c4cc(-c5cc(=O)c6c(O)cc(OC)cc6o5)ccc4OC)c3o2)cc1` [sciadopitysin], the “degree of enzyme inhibition (cAMP-phosphodiesterase), order” value (cAMP-phosphodiesterase) is listed as “almost no capacity for inhibition”.
